Consider 17 compounds from PubChem BioAssay (NCI).

Among the test systems are OVCAR-3 ovarian; NCI-H226 lung; SN12C renal; MDA-MB-231 breast; MOLT-4 leukemia; PC-3 prostate; SNB-19 CNS; CCRF-CEM leukemia; DU-145 prostate; CAKI-1 renal.
What all share (test): NCI anticancer screen, dose series, 48 h

“And” between values parts separate entries of the source, which are not always exact repeats. Equal values may be shown once.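 Each compound was tested at five concentrations against cells in 96-well plates for 48 hours. At the GI50, growth is halved. TGI is the concentration that stops growth completely.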

Regarding `CCSc1ccc([C@@H]2[C@@H](N)C(=O)N2c2cc(OC)c(OC)c(OC)c2)cc1`, the GI50 in the test with OVCAR-3 ovarian was 0.0338 µM; in the test with NCI-H226 lung, 79 µM; with SN12C renal, 0.524 µM; with MDA-MB-231 breast, 0.376 µM; with MOLT-4 leukemia, 0.0528 µM; with PC-3 prostate, 0.0773 µM. Also, the GI50 was 0.0715 µM with SNB-19 CNS, 0.0439 µM with CCRF-CEM leukemia and 0.188 µM with DU-145 prostate. The TGI was 2.08 µM with OVCAR-3 ovarian; over 100 µM with NCI-H226 lung; over 100 µM in the test on SN12C renal; over 100 µM with MDA-MB-231 breast; over 100 µM in the test with MOLT-4 leukemia; over 100 µM in the test with PC-3 prostate. The TGI in the test on SNB-19 CNS, in the test with CCRF-CEM leukemia and in the test on DU-145 prostate was over 100 µM throughout.
As to `CC(=O)Nc1ccc(-c2csc(Nc3cccc(-c4csc(-c5ccccc5)n4)c3)n2)cc1`, the GI50 is 20.4 µM with OVCAR-3 ovarian; 8.2 µM with SN12C renal; 17.5 µM in the test with CAKI-1 renal; 13.5 µM in the test with MDA-MB-231 breast; over 50 µM with MOLT-4 leukemia; 14.7 µM with PC-3 prostate. Moreover, the GI50 in the test on SNB-19 CNS is 49.7 µM; in the test on CCRF-CEM leukemia, over 50 µM; with DU-145 prostate, 22.2 µM. Moreover, the TGI is over 50 µM with OVCAR-3 ovarian; 27.6 µM in the test with SN12C renal; over 50 µM in the test with CAKI-1 renal; 37.9 µM in the test with MDA-MB-231 breast; over 50 µM with MOLT-4 leukemia; over 50 µM in the test with PC-3 prostate. The TGI in the test with SNB-19 CNS, in the test with CCRF-CEM leukemia and in the test on DU-145 prostate was over 50 µM in each case.
For `COc1cc2cnc(-c3ccccc3)cc2cc1OC`, the TGI with OVCAR-3 ovarian was 85.6 µM; in the test with NCI-H226 lung, 45.8 µM; with SN12C renal it was 22.2 µM; with CAKI-1 renal, 62.4 µM; in the test with MDA-MB-231 breast, 48.2 µM; in the test with MOLT-4 leukemia it was 50.7 µM. Besides, the figures for the TGI in the test with PC-3 prostate, in the test with SNB-19 CNS and with DU-145 prostate were 77.5 µM, over 100 µM and over 100 µM, respectively.
As for `CCCC(C)c1c(Cl)nc(Cl)nc1Cl` (configuration not stated), the TGI in the test with OVCAR-3 ovarian is 21.3 µM; in the test with NCI-H226 lung, 18.7 µM; with SN12C renal it was 48 µM; in the test with MDA-MB-231 breast, over 100 µM; with MOLT-4 leukemia, over 100 µM; in the test on PC-3 prostate it was 46 µM. For the same compound, the TGI in the test on SNB-19 CNS is 35.6 µM; in the test with CCRF-CEM leukemia it was over 100 µM; in the test on DU-145 prostate, 28.3 µM.
Regarding `O=C(NO)c1ccc(Cn2c(=O)n(-c3ccccc3)c(=O)c3ccccc32)cc1`, the GI50 is 1.58 µM with OVCAR-3 ovarian; 1.32 µM with NCI-H226 lung; 2.81 µM in the test on CAKI-1 renal; 1.63 µM in the test with MDA-MB-231 breast; 0.848 µM with MOLT-4 leukemia; 1.72 µM with PC-3 prostate. The results for the GI50 in the test on SNB-19 CNS, in the test with CCRF-CEM leukemia and with DU-145 prostate were 1.85 µM, 0.457 µM and 0.773 µM, respectively. The TGI was 7.87 µM in the test on OVCAR-3 ovarian; 2.91 µM with NCI-H226 lung; 12.3 µM with CAKI-1 renal; 5.16 µM in the test with MDA-MB-231 breast; over 100 µM in the test with MOLT-4 leukemia; 4.53 µM in the test on PC-3 prostate. Besides, the TGI with SNB-19 CNS, in the test with CCRF-CEM leukemia and in the test on DU-145 prostate was over 100 µM each time.
`CCOC(=O)C(=O)Nc1ccccc1OCC`: the TGI in the test on OVCAR-3 ovarian, with NCI-H226 lung, with SN12C renal, in the test on CAKI-1 renal, in the test on MOLT-4 leukemia and with SNB-19 CNS was over 100 µM in each case. In addition, the TGI in the test with CCRF-CEM leukemia was over 100 µM.
For `COc1ccc(/C=C\c2cc(OC)c(OC)c(OC)c2)cc1OCC(=O)Nc1nc2ccccc2s1`, the GI50 is 0.431 µM in the test on SN12C renal; 0.309 µM in the test on CAKI-1 renal; 0.179 µM with MDA-MB-231 breast; 0.366 µM in the test with MOLT-4 leukemia; 0.183 µM in the test on PC-3 prostate; 0.134 µM with CCRF-CEM leukemia. For the same compound, the GI50 in the test on DU-145 prostate is 0.14 µM. For the same compound, the TGI in the test with SN12C renal is over 100 µM; with CAKI-1 renal it was over 35.8 µM; in the test on MDA-MB-231 breast, over 100 µM; with MOLT-4 leukemia, over 100 µM; in the test on PC-3 prostate, over 100 µM; in the test with CCRF-CEM leukemia, over 100 µM. Further, the TGI in the test with DU-145 prostate was over 100 µM.
As to `CCOc1ccc(NCC2CC/C(=C\c3ccc(Cl)cc3)C2=O)cc1` (configuration not stated), the TGI with OVCAR-3 ovarian was over 51.9 µM; in the test on NCI-H226 lung, over 100 µM; in the test on SN12C renal, over 60.3 µM; with CAKI-1 renal, over 73.8 µM; with MOLT-4 leukemia it was 69.8 µM; in the test on SNB-19 CNS it was over 100 µM. Besides, in the test with CCRF-CEM leukemia, the TGI was determined as 22.8 µM.
Take `CC[C@H]1CN(C)[C@H]2Cc3c([nH]c4ccccc34)C(=O)C[C@H]1C2C(=O)OC` (some centres not stated): the TGI with OVCAR-3 ovarian, with NCI-H226 lung, in the test on SN12C renal, in the test with MDA-MB-231 breast, in the test with MOLT-4 leukemia and in the test on PC-3 prostate was over 100 µM each time. For the same compound, the TGI in the test on SNB-19 CNS, in the test with CCRF-CEM leukemia and with DU-145 prostate was over 100 µM in each case.
On to `CC(O)C(NC(=O)c1ccccc1)C(=O)N(Cc1ccccc1)Cc1ccccc1` (configuration not stated), for which the TGI was over 100 µM with OVCAR-3 ovarian; over 100 µM with NCI-H226 lung; over 100 µM with SN12C renal; 49.9 µM in the test on CAKI-1 renal; over 100 µM in the test with MOLT-4 leukemia; over 100 µM with SNB-19 CNS. The same compound registered a TGI with CCRF-CEM leukemia of over 100 µM.
With `c1ccc2cc(C[n+]3ccn(Cc4ccc5ccccc5n4)c3)ccc2c1`, the GI50 was 0.316 µM and 2.15 µM with OVCAR-3 ovarian; 1.06 µM and 4.51 µM with NCI-H226 lung; 0.347 µM and 2.82 µM in the test on SN12C renal; 0.432 µM and 2.22 µM in the test with MDA-MB-231 breast; 0.488 µM and 3.19 µM in the test with MOLT-4 leukemia; 0.342 µM and 2.39 µM with PC-3 prostate. Moreover, the GI50 in the test on SNB-19 CNS was 0.338 µM and 3.05 µM; in the test on CCRF-CEM leukemia it was 0.728 µM and 3.64 µM. The TGI in the test with OVCAR-3 ovarian is 1.98 µM and 13.2 µM; with NCI-H226 lung, 4.87 µM and 21.6 µM; with SN12C renal, 6.15 µM and 11 µM; with MDA-MB-231 breast, 1.97 µM and 8.2 µM; in the test with MOLT-4 leukemia, 5.04 µM and 14.7 µM; in the test with PC-3 prostate, 3.18 µM and 13.9 µM. The TGI was 11 µM and 13.2 µM in the test with SNB-19 CNS; 11 µM and 16.4 µM in the test on CCRF-CEM leukemia; 12.4 µM and 22.4 µM in the test on DU-145 prostate.
With `CNc1ccc([N+](=O)[O-])c2c(NCCCN(C)C)ccnc12`, the TGI in the test with OVCAR-3 ovarian, in the test with NCI-H226 lung, with SN12C renal, in the test on CAKI-1 renal, in the test with MOLT-4 leukemia and with SNB-19 CNS was over 100 µM throughout. Besides, the TGI in the test with CCRF-CEM leukemia was over 100 µM.
For the compound `O=C(c1ccco1)c1nc2cc(C(F)(F)F)ccc2[n+]([O-])c1C(F)(F)F`, the GI50 in the test on OVCAR-3 ovarian is 30.5 µM; in the test on SN12C renal, 65.1 µM; in the test on CAKI-1 renal, over 100 µM; with MDA-MB-231 breast, 68.8 µM; in the test on MOLT-4 leukemia it was 90.3 µM; in the test with PC-3 prostate it was 43.3 µM. For the same compound, the GI50 in the test with SNB-19 CNS is 48.3 µM; in the test with CCRF-CEM leukemia, 60.2 µM; with DU-145 prostate, 61.7 µM. The TGI with OVCAR-3 ovarian, with SN12C renal, in the test on CAKI-1 renal, with MDA-MB-231 breast, in the test with MOLT-4 leukemia and in the test on PC-3 prostate was over 100 µM each time. For the same compound, the TGI in the test with SNB-19 CNS, in the test with CCRF-CEM leukemia and in the test on DU-145 prostate was over 100 µM in each case.
Regarding `N#Cc1cc([N+](=O)[O-])ccc1NC(=O)C(=O)C(C(=O)c1ccc2ccccc2c1)C1OCc2ccccc21` (configuration not stated), the TGI in the test with OVCAR-3 ovarian was over 47.6 µM; with NCI-H226 lung, 4.46 µM; with SN12C renal, 46.5 µM; with CAKI-1 renal, over 50.3 µM; in the test on MOLT-4 leukemia, 21.8 µM; with SNB-19 CNS, 21.1 µM. In the test on CCRF-CEM leukemia, this compound came in with a TGI of 39.2 µM.
As for `NC(CCc1ncc(-c2ccccc2)s1)C(=O)O` (configuration not stated), the TGI with OVCAR-3 ovarian, in the test on NCI-H226 lung, with SN12C renal, in the test with CAKI-1 renal, with MOLT-4 leukemia and with SNB-19 CNS was over 100 µM each time. Also, in the test with CCRF-CEM leukemia, the TGI is over 100 µM.
As for `COc1cnc2c(c1)C(=O)c1c-2n(CCCNCCN2CCOCC2)c(=O)c2cc([N+](=O)[O-])ccc12`, the GI50 in the test with OVCAR-3 ovarian was 0.315 µM; in the test on SN12C renal, 0.0795 µM; in the test with CAKI-1 renal, 0.0433 µM; in the test with MDA-MB-231 breast it was 0.63 µM; in the test with MOLT-4 leukemia it was 0.0335 µM; with PC-3 prostate it was 0.568 µM. Also, the GI50 in the test with SNB-19 CNS is 0.11 µM; in the test on CCRF-CEM leukemia, 0.0453 µM; with DU-145 prostate, 0.0608 µM. For the same compound, the TGI in the test on OVCAR-3 ovarian came to 1.71 µM; in the test with SN12C renal, 4.59 µM; in the test with CAKI-1 renal, 7.31 µM; in the test with MDA-MB-231 breast, 2.65 µM; with MOLT-4 leukemia, 0.269 µM; in the test on PC-3 prostate, 13 µM. Also, the TGI in the test with SNB-19 CNS is 5.2 µM; in the test on CCRF-CEM leukemia, 3.2 µM; in the test with DU-145 prostate, 1.12 µM.
For `CCCC(=O)c1ccc(=O)n(C)c1`, the TGI in the test with OVCAR-3 ovarian, in the test on NCI-H226 lung, in the test on SN12C renal, with CAKI-1 renal, in the test on MOLT-4 leukemia and with SNB-19 CNS was over 100 µM throughout. Besides, the TGI in the test on CCRF-CEM leukemia is over 100 µM.
